{"source": "patent US5395947A", "about": "“Platinum(II) complex and processes for preparing the same” (Sunkyong Industries, Ltd., priority 1991, dated 1995)", "key": {"[1]": {"tested_on": "murine leukemia L1210 cells", "assay": "Growth inhibition test on cultured murine leukemia L1210 cells", "type": "cell-based", "conditions": "48 hours, 37° C., Trypan blue viability", "how_it_was_run": "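L1210 cells (1×10^5) exposed to graded compound concentrations in RPMI 1640 with 10% fetal calf serum, 37° C, 5% CO2, 48 h. Viability by 0.17% Trypan blue staining, relative to untreated control cells.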"}, "murine leukemia L1210": {"tested_on": "murine leukemia L1210", "assay": "Antitumor activity test on murine leukemia L1210 in vivo", "parameters": "species or system male BDF1 mice", "conditions": "days 1, 5, 9", "how_it_was_run": "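Intraperitoneal L1210 model: 1×10^6 cells inoculated i.p. into 6-week-old male BDF1 mice (21±3 g) on day 0, seven per group. Compounds in 0.5% CMC given i.p. on days 1, 5 and 9; vehicle-only controls. T/C % from mean survival time of treated over control.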"}, "[2]": {"assay": "Test for water solubility", "type": "physicochemical", "conditions": "water", "excerpt": "3. Test for water solubility\nA standard plot of UV absorbance(220 nm) vs. concentration was made; and employed to determine water-solubility.\nThe mixture was then passed through a 0.45 micron disposable membrane filter before dilution and UV measurement."}, "ICR mice": {"tested_on": "ICR mice", "assay": "Acute toxicity test", "type": "in vivo", "parameters": "Lethality: unit not given here", "conditions": "for Lethality: 10080 min", "how_it_was_run": "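Male and female 7-week-old ICR mice, 6 per group, dosed intraperitoneally. Signs and survival followed for 7 days, with autopsy of animals that died.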"}, "Test for nephrotoxicity": {"assay": "Test for nephrotoxicity", "type": "in vivo, male ICR mice", "conditions": "75.0 mg/kg i.p. once", "description": "4. Test for nephrotoxicity\nThe compounds of the present invention were dissolved or suspended in 0.5% CMC solution(in water) and were administered intraperitoneally one time to 8-week-old male ICR mice weighing 30±3 g. Each treatment and control groups consisted of six mice.\nThe administration amount of the test compound was 1.5 times the optimum dose obtained in Table 2, or more. On days 1, 4 and 8 after administration, their blood was collected under ether anesthesia for measurement of blood urea nitrogen concentration (BUN value) and creatinine concentration.\nA pair of kidneys were taken and, after immediate weighing, were stored in a 10% neutral buffered formalin solution. The body weight ratio shown in Table 5 is a ratio of the body weight measured on days 1, 4 and 8 from the administration of the compound to the body weight measured on the administration day."}}}
{"compound": "O=C1[O][Pt-2]2([NH2+]CC3OC4(CCCC4)OC3C[NH2+]2)[O]C(=O)C12CCC2", "note": "[Example 30, cis-cyclobutane-1,1-dicarboxylato[(4R,5R)-4,5-bis(aminomethyl)-1,3-dioxolane-2-spiro-1'-cyclopentane]platinum(II)]", "values": [{"measurement": "IC50 (concentration required for 50% inhibition of growth)", "setting": "[1]", "value": 0.55, "unit": "µg/mL"}, {"measurement": "T/C (%)", "setting": "murine leukemia L1210; 6.2 mg/kg i.p.", "value": 109, "unit": "%"}, {"measurement": "T/C (%)", "setting": "murine leukemia L1210; 12.5 mg/kg i.p.", "value": 122, "unit": "%"}, {"measurement": "T/C (%)", "setting": "murine leukemia L1210; 25 mg/kg i.p.", "value": 110, "unit": "%"}, {"measurement": "T/C (%)", "setting": "murine leukemia L1210; 50 mg/kg i.p.", "value": 148, "unit": "%"}, {"measurement": "T/C (%)", "setting": "murine leukemia L1210; 100 mg/kg i.p.", "value": 185, "unit": "%"}, {"measurement": "Solubility in water", "setting": "[2]", "value": 1900, "unit": "µg/mL"}, {"measurement": "Number of dead mice for 7 days", "setting": "ICR mice; female, 94 mg/kg i.p.", "value": "0/6"}, {"measurement": "Number of dead mice, 1st day", "setting": "ICR mice; female, 94 mg/kg i.p.", "value": "0/6"}, {"measurement": "Number of dead mice for 7 days", "setting": "ICR mice; female, 123 mg/kg i.p.", "value": "0/6"}, {"measurement": "Number of dead mice, 1st day", "setting": "ICR mice; female, 123 mg/kg i.p.", "value": "0/6"}, {"measurement": "Number of dead mice for 7 days", "setting": "ICR mice; female, 160 mg/kg i.p.", "value": "1/6"}, {"measurement": "Number of dead mice, 1st day", "setting": "ICR mice; female, 160 mg/kg i.p.", "value": "0/6"}, {"measurement": "Number of dead mice, 5th day", "setting": "ICR mice; female, 160 mg/kg i.p.", "value": "1/6"}, {"measurement": "Lethality", "setting": "ICR mice; female, 160 mg/kg i.p.", "value": 16.7}, {"measurement": "Number of dead mice for 7 days", "setting": "ICR mice; female, 208 mg/kg i.p.", "value": "4/6"}, {"measurement": "Number of dead mice, 1st day", "setting": "ICR mice; female, 208 mg/kg i.p.", "value": "0/6"}, {"measurement": "Number of dead mice, 3rd day", "setting": "ICR mice; female, 208 mg/kg i.p.", "value": "2/6"}, {"measurement": "Number of dead mice, 4th day", "setting": "ICR mice; female, 208 mg/kg i.p.", "value": "2/4"}, {"measurement": "Lethality", "setting": "ICR mice; female, 208 mg/kg i.p.", "value": 66.7}, {"measurement": "Number of dead mice for 7 days", "setting": "ICR mice; female, 270 mg/kg i.p.", "value": "6/6"}, {"measurement": "Number of dead mice, 1st day", "setting": "ICR mice; female, 270 mg/kg i.p.", "value": "0/6"}, {"measurement": "Number of dead mice, 2nd day", "setting": "ICR mice; female, 270 mg/kg i.p.", "value": "4/6"}, {"measurement": "Number of dead mice, 3rd day", "setting": "ICR mice; female, 270 mg/kg i.p.", "value": "2/2"}, {"measurement": "Lethality", "setting": "ICR mice; female, 270 mg/kg i.p.", "value": 100.0}, {"measurement": "Number of dead mice for 7 days", "setting": "ICR mice; male, 94 mg/kg i.p.", "value": "0/6"}, {"measurement": "Number of dead mice, 1st day", "setting": "ICR mice; male, 94 mg/kg i.p.", "value": "0/6"}, {"measurement": "Number of dead mice for 7 days", "setting": "ICR mice; male, 123 mg/kg i.p.", "value": "0/6"}, {"measurement": "Number of dead mice, 1st day", "setting": "ICR mice; male, 123 mg/kg i.p.", "value": "1/6"}, {"measurement": "Number of dead mice for 7 days", "setting": "ICR mice; male, 160 mg/kg i.p.", "value": "1/6"}, {"measurement": "Number of dead mice, 1st day", "setting": "ICR mice; male, 160 mg/kg i.p.", "value": "0/6"}, {"measurement": "Number of dead mice, 4th day", "setting": "ICR mice; male, 160 mg/kg i.p.", "value": "1/6"}, {"measurement": "Lethality", "setting": "ICR mice; male, 160 mg/kg i.p.", "value": 16.7}, {"measurement": "Number of dead mice for 7 days", "setting": "ICR mice; male, 208 mg/kg i.p.", "value": "5/6"}, {"measurement": "Number of dead mice, 1st day", "setting": "ICR mice; male, 208 mg/kg i.p.", "value": "1/6"}, {"measurement": "Number of dead mice, 2nd day", "setting": "ICR mice; male, 208 mg/kg i.p.", "value": "1/6"}, {"measurement": "Number of dead mice, 3rd day", "setting": "ICR mice; male, 208 mg/kg i.p.", "value": "3/5"}, {"measurement": "Lethality", "setting": "ICR mice; male, 208 mg/kg i.p.", "value": 83.3}, {"measurement": "Number of dead mice for 7 days", "setting": "ICR mice; male, 270 mg/kg i.p.", "value": "6/6"}, {"measurement": "Number of dead mice, 1st day", "setting": "ICR mice; male, 270 mg/kg i.p.", "value": "0/6"}, {"measurement": "Number of dead mice, 2nd day", "setting": "ICR mice; male, 270 mg/kg i.p.", "value": "2/6"}, {"measurement": "Number of dead mice, 3rd day", "setting": "ICR mice; male, 270 mg/kg i.p.", "value": "4/4"}, {"measurement": "Lethality", "setting": "ICR mice; male, 270 mg/kg i.p.", "value": 100.0}]}
{"compound": "CCC1(CC)OC2C[NH2+][Pt-2]3([NH2+]CC2O1)[O]C(=O)CC(=O)[O]3", "note": "[Example 37, cis-malonato[(4R,5R)-4,5-bis(aminomethyl)-2,2-diethyl-1,3-dioxolane]platinum(II)]", "values": [{"measurement": "IC50 (concentration required for 50% inhibition of growth)", "setting": "[1]", "value": 0.42, "unit": "µg/mL"}, {"measurement": "T/C (%)", "setting": "murine leukemia L1210; 12.5 mg/kg i.p.", "value": 130, "unit": "%"}, {"measurement": "T/C (%)", "setting": "murine leukemia L1210; 25 mg/kg i.p.", "value": 180, "unit": "%"}, {"measurement": "T/C (%)", "setting": "murine leukemia L1210; 50 mg/kg i.p.", "value": 231, "unit": "%"}, {"measurement": "BUN, 1st day", "setting": "Test for nephrotoxicity", "value": 27.5, "unit": "mg/100 ml"}, {"measurement": "BUN, 4th day", "setting": "Test for nephrotoxicity", "value": 26.4, "unit": "mg/100 ml"}, {"measurement": "BUN, 8th day", "setting": "Test for nephrotoxicity", "value": 28.4, "unit": "mg/100 ml"}]}
